Data on 52 compounds can be found in patent publication US20090054421A1, “Pyrimidothiophene Compounds Having HSP90 Inhibitory Activity” (Vernalis R & D Limited, priority 2005, published 2009).

Some results are limits rather than exact numbers.

T1 sequence (P08238 whole entry): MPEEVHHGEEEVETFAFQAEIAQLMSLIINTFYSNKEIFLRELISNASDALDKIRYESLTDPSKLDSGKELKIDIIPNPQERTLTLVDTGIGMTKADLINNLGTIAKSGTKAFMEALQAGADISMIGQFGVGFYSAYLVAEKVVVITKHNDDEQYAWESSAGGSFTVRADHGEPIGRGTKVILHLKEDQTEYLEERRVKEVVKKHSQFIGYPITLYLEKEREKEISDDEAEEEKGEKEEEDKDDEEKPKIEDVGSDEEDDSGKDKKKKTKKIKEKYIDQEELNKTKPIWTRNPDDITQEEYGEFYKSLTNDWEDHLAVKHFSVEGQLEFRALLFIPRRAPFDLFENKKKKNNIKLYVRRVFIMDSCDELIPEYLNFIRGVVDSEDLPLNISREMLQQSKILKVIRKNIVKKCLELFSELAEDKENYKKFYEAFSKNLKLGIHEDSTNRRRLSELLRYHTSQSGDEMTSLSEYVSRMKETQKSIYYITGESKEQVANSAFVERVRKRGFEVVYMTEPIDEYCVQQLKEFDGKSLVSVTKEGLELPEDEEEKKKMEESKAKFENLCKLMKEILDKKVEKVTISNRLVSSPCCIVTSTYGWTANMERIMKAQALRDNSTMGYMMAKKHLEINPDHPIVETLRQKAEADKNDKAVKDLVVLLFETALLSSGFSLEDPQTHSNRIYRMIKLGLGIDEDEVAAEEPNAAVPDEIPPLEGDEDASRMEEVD

The assay concerns the target T1, human full-length HSP90 (Homo sapiens, UniProt P08238).
T1 construct: E. coli expressed human full-length HSP90 protein, purified >95%; made in house; host or cells: E. coli
Kind of assay: Fluorescence polarization assay (competitive displacement of fluorescein-labelled probe from HSP90). To be noted: activity range A or B. Format: binding. An excerpt:
Fluorescence Polarization Assay
Fluorescence polarization {also known as fluorescence anisotropy} measures the rotation of a fluorescing species in solution, where the larger molecule the more polarized the fluorescence emission. When the fluorophore is excited with polarized light, the emitted light is also polarized. The molecular size is proportional to the polarization of the fluorescence emission.
The fluoroscein-labelled probe—
binds to HSP90 {full-length human, full-length yeast or N-terminal domain HSP90} and the anisotropy {rotation of the probe:protein complex} is measured.
Test compound is added to the assay plate, left to equilibrate and the anisotropy measured again. Any change in anisotropy is due to competitive binding of compound to HSP90, thereby releasing probe.
Chemicals are of the highest purity commercially available and all aqueous solutions are made up in AR water. • 1) Costar 96-well black assay plate #3915 • 2) Assay buffer of (a) 100 mM Tris pH7.4; (b) 20 mM KCl; (c) 6 mM MgCl2. Stored at room temperature. • 3) BSA (bovine serum albumen) 10 mg/ml (New England Biolabs # B9001S) • 4) 20 mM probe in 100% DMSO stock concentration. Stored in the dark at RT. Working concentration is 200 nM diluted in AR water and stored at 4° C., Final concentration in assay 80 nM. • 5) E. coli expressed human full-length HSP90 protein, purified >95% (see, e.g., Panaretou et al., 1998) and stored in 50 μL aliquots at −80° C.
• 1) Add 100 μl 1× buffer to wells 11A and 12A (=FP BLNK) • 2) Prepare assay mix—all reagents are kept on ice with a lid on the bucket as the probe is light-sensitive.
• 3) Aliquot 100 μl assay mix to all other wells • 4) Seal plate and leave in dark at room temp for 20 minutes to equilibrate Compound Dilution Plate—1×3 dilution series • 1) In a clear 96-well v-bottom plate—{# VWR 007/008/257} add 10 μl 100% DMSO to wells B1 to H11 • 2) To wells A1 to A11 add 17.5 μl 100% DMSO • 3) Add 2.5 μl cpd to A1. This gives 2.5 mM {50×} stock cpd—assuming cpds 20 mM. • 4) Repeat for wells A2 to A10. Control in columns 11 and 12. • 5) Transfer 5 μl from row A to row B—not column 12. Mix well. • 6) Transfer 5 μl from row B to row C. […] In column 11 {provides standard curve} only add compound B11-H11. Add 2 μl of 100 mM standard cpd to wells B12-H12 {is positive control} • 13) The Z′ factor is calculated from zero controls and positive wells. It typically gives a value of 0.7-0.9.
The compounds tested in the above assay were assigned to one of two activity ranges, namely A=<10 μM; B=>10 μM, and those assignments are reported above.
A general note: In fluorescence polarisation assays a small probe gives low polarisation when free and higher when bound to something large.
What is called IC50 is the point on the concentration scale where inhibition reaches its midpoint. For `CCNC(=O)c1cc2c(C(=NOC)c3ccc4c(c3)OCCN4C)nc(N)nc2s1` (mixture of isomers) [Example 1, 2-Amino-4-[methoxyimino-(4-methyl-3,4-dihydro-2H-benzo[1,4]oxazin-7-yl)-methyl]-thieno[2,3-d]pyrimidine-6-carboxylic acid ethylamide], the IC50 is less than 10 µM. In the case of `CCNC(=O)c1cc2c(C(=NO)c3ccc4c(c3)OCCN4C)nc(N)nc2s1` (mixture of isomers) [Example 2, 2-Amino-4-[hydroxyimino-(4-methyl-3,4-dihydro-2H-benzo[1,4]oxazin-7-yl)-methyl]-thieno[2,3-d]pyrimidine-6-carboxylic acid ethylamide], the half-maximal inhibitory concentration (IC50) was less than 10 µM. As for `CCNC(=O)c1cc2c(C(=NOCCN3CCCC3)c3ccc4c(c3)OCO4)nc(N)nc2s1` (mixture of isomers) [Example 28], the IC50 is less than 10 µM. The compound `CCNC(=O)c1cc2c(C(=NOCCN3CCCC3=O)c3ccc4c(c3)OCO4)nc(N)nc2s1` (mixture of isomers) [Example 29] had a 50% inhibitory concentration (IC50) of less than 10 µM. In the case of `CCNC(=O)c1cc2c(C(=NOCCN(CC)CC)c3cc4c(cc3Cl)OCO4)nc(N)nc2s1` (mixture of isomers) [Example 30], the IC50 is less than 10 µM.

For the compound `CC(C)NC(=O)c1cc2c(C(=NOCCN3CCCC3=O)c3ccc4c(c3)OCO4)nc(N)nc2s1` (mixture of isomers) [Example 46], the half-inhibitory concentration (IC50) is less than 10 µM.

`CC(C)(C)NC(=O)c1cc2c(C(=NOCCN3CCCC3)c3ccc4c(c3)OCO4)nc(N)nc2s1` (mixture of isomers) [Example 54] came in with a half-maximal inhibitory concentration (IC50) of less than 10 µM. For `COCCNC(=O)c1cc2c(C(=NOCCN3CCCC3=O)c3ccc4c(c3)OCO4)nc(N)nc2s1` (mixture of isomers) [Example 57], the IC50 was less than 10 µM. Compound `CCNC(=O)c1cc2c(C(=NO)c3ccc4c(c3)OCO4)nc(N)nc2s1` [Example 3, 2-Amino-4-(benzo[1,3]dioxol-5-yl-hydroxyimino-methyl)-thieno[2,3-d]pyrimidine-6-carboxylic acid ethylamide] returned a half-inhibitory concentration (IC50) of less than 10 µM.

The compound `CCOC(=O)c1cc2c(C(=NOC)c3ccc4c(c3)OCO4)nc(N)nc2s1` [Example 4, 2-Amino-4-(benzo[1,3]dioxol-5-yl-methoxyimino-methyl)-thieno[2,3-d]pyrimidine-6-carboxylic acid ethyl ester] registered an IC50 of less than 10 µM. `CCNC(=O)c1cc2c(C(=NO)c3ccccn3)nc(N)nc2s1` [Example 5] yielded a concentration for half-maximal inhibition (IC50) of less than 10 µM. Then `CCNC(=O)c1cc2c(C(=NO)c3cc4c(cc3Cl)OCO4)nc(N)nc2s1` [Example 6], with less than 10 µM.

`CCNC(=O)c1cc2c(C(=NO)c3cccnc3)nc(N)nc2s1` [Example 7]: the concentration for half-maximal inhibition (IC50) was more than 10 µM.

Take `CCNC(=O)c1cc2c(C(=NO)c3cccc(OC)c3)nc(N)nc2s1` [Example 9]: the 50% inhibitory concentration (IC50) is less than 10 µM.

In turn, `CCNC(=O)c1cc2c(C(=NO)c3ccc(Cl)cc3)nc(N)nc2s1` [Example 10] displayed an IC50 of less than 10 µM.

As for `CCNC(=O)c1cc2c(C(=NO)c3ccccc3Cl)nc(N)nc2s1` [Example 11], the IC50 was more than 10 µM.

With `CCNC(=O)c1cc2c(C(=NO)c3ccc(OC)cc3)nc(N)nc2s1` [Example 12], the IC50 was less than 10 µM.

In turn, `CCNC(=O)c1cc2c(C(=NO)c3cccc(Cl)c3)nc(N)nc2s1` [Example 13] had a 50% inhibitory concentration (IC50) of less than 10 µM.

Consider `CCNC(=O)c1cc2c(C(=NO)c3ccc4ccccc4c3)nc(N)nc2s1` [Example 14], for which the IC50 was less than 10 µM. Regarding `CCNC(=O)c1cc2c(C(=NO)c3ccc(OC)c(OC)c3)nc(N)nc2s1` [Example 15], the IC50 was less than 10 µM. As for `CCNC(=O)c1cc2c(C(=NO)c3ccc4c(c3)CCO4)nc(N)nc2s1` [Example 16], the half-inhibitory concentration (IC50) is less than 10 µM.

Consider `CCNC(=O)c1cc2c(C(=NO)c3ccco3)nc(N)nc2s1` [Example 17], for which the 50% inhibitory concentration (IC50) was less than 10 µM. In turn, `CCNC(=O)c1cc2c(C(=NO)c3ccc4[nH]ccc4c3)nc(N)nc2s1` [Example 18] registered an IC50 of less than 10 µM. Then `CCNC(=O)c1cc2c(C(=NO)c3ccoc3)nc(N)nc2s1` [Example 19], with less than 10 µM; and `Nc1nc(C(=NO)c2ccc3c(c2)OCO3)c2cc(C(=O)NC3CC3)sc2n1` [Example 20, 2-Amino-4-(benzo[1,3]dioxol-5-yl-hydroxyimino-methyl)-thieno[2,3-d]pyrimidine-6-carboxylic acid cyclopropylamide], with less than 10 µM. As to `CC(C)(C)NC(=O)c1cc2c(C(=NO)c3ccc4c(c3)OCO4)nc(N)nc2s1` [Example 21], the IC50 was less than 10 µM. In turn, `COCCNC(=O)c1cc2c(C(=NO)c3ccc4c(c3)OCO4)nc(N)nc2s1` [Example 22] gave an IC50 of less than 10 µM. Compound `CN(C)CCCNC(=O)c1cc2c(C(=NO)c3ccc4c(c3)OCO4)nc(N)nc2s1` [Example 23] displayed an IC50 of less than 10 µM. For the compound `CN(C)CCNC(=O)c1cc2c(C(=NO)c3ccc4c(c3)OCO4)nc(N)nc2s1` [Example 24], the IC50 is less than 10 µM. On to `Nc1nc(C(=NO)c2ccc3c(c2)OCO3)c2cc(C(=O)NCC(F)(F)F)sc2n1` [Example 25], for which the IC50 was less than 10 µM. `CCNC(=O)c1cc2c(C(=NOCCN(CC)CC)c3ccc4c(c3)OCO4)nc(N)nc2s1` [Example 26, 2-Amino-4-(benzo[1,3]dioxol-5-yl-(2-diethylamino-ethoxyimino)-methyl]-thieno[2,3-d]pyrimidine-6-carboxylic acid ethylamide] had a concentration for half-maximal inhibition (IC50) of less than 10 µM. Turning to `CCNC(=O)c1cc2c(C(=NOCCN(CC)CC)c3cccc(OC)c3)nc(N)nc2s1` [Example 31], the half-inhibitory concentration (IC50) was less than 10 µM. As for `CCNC(=O)c1cc2c(C(=NOCCN(CC)CC)c3ccc4c(c3)OCCO4)nc(N)nc2s1` [Example 32], the IC50 is less than 10 µM. On to `CCNC(=O)c1cc2c(C(=NOCCN(CC)CC)c3ccc(OC)cc3)nc(N)nc2s1` [Example 33], for which the IC50 was less than 10 µM. For `CCNC(=O)c1cc2c(C(=NOCC(=O)O)c3ccc4c(c3)OCO4)nc(N)nc2s1` [Example 34], the half-inhibitory concentration (IC50) was less than 10 µM.

Consider `CCNC(=O)c1cc2c(C(=NOCC(=O)N3CCCCC3)c3ccc4c(c3)OCO4)nc(N)nc2s1` [Example 35], for which the IC50 was less than 10 µM. The same measure for `CCNC(=O)c1cc2c(C(=NOCCN(CC)CC)c3ccco3)nc(N)nc2s1` [Example 37]: more than 10 µM.

Turning to `CCNC(=O)c1cc2c(C(=NOCCN(CC)CC)c3cccs3)nc(N)nc2s1` [Example 38], the half-maximal inhibitory concentration (IC50) is more than 10 µM. Compound `CCNC(=O)c1cc2c(C(=NOCCN3CCCC3)c3cccs3)nc(N)nc2s1` [Example 39] gave an IC50 of more than 10 µM. On to `CCNC(=O)c1cc2c(C(=NOCCN3CCCC3=O)c3cccs3)nc(N)nc2s1` [Example 40], for which the IC50 is less than 10 µM. Then `CCNC(=O)c1cc2c(C(=NOCCN(CC)CC)c3ccco3)nc(N)nc2s1` [Example 41], with less than 10 µM.

In turn, `CCNC(=O)c1cc2c(C(=NOCCN(CC)CC)c3ccncc3)nc(N)nc2s1` [Example 42] gave an IC50 of more than 10 µM. For `CCNC(=O)c1cc2c(C(=NOCCN3CCCC3)c3ccco3)nc(N)nc2s1` [Example 43], the IC50 is less than 10 µM. The compound `CCN(CC)CCON=C(c1ccc2c(c1)OCO2)c1nc(N)nc2sc(C(=O)NC(C)C)cc12` [Example 44] had an IC50 of less than 10 µM. The same measure for `CC(C)NC(=O)c1cc2c(C(=NOCCN3CCCC3)c3ccc4c(c3)OCO4)nc(N)nc2s1` [Example 45]: less than 10 µM; for `CCNC(=O)c1cc2c(C(=NOCCN3CCCC3=O)c3ccco3)nc(N)nc2s1` [Example 47]: less than 10 µM. The compound `CCNC(=O)c1cc2c(C(=NOCCN3CCCC3)c3ccncc3)nc(N)nc2s1` [Example 48] had a half-maximal inhibitory concentration (IC50) of more than 10 µM. For `CCNC(=O)c1cc2c(C(=NO)c3cccs3)nc(N)nc2s1` [Example 50], the 50% inhibitory concentration (IC50) is less than 10 µM. In the case of `CCNC(=O)c1cc2c(C(=NO)c3ccncc3)nc(N)nc2s1` [Example 51], the half-inhibitory concentration (IC50) was more than 10 µM.

As to `CCN(CC)CCON=C(c1ccc2c(c1)OCO2)c1nc(N)nc2sc(C(=O)NCCOC)cc12` [Example 52], the half-maximal inhibitory concentration (IC50) was less than 10 µM.

On to `COCCNC(=O)c1cc2c(C(=NOCCN3CCCC3)c3ccc4c(c3)OCO4)nc(N)nc2s1` [Example 53], for which the IC50 is less than 10 µM. `CCN(CC)CCON=C(c1ccc2c(c1)OCO2)c1nc(N)nc2sc(C(=O)NC(C)(C)C)cc12` [Example 55] gave an IC50 of less than 10 µM.
